# Several values for one entry are separate records, joined by “and”; a condition that tells them apart may be missing. Equal entries are not always repeated. Where two headings read alike, the source gives them in different places.
# Tests used:
# Mycobacterium abscessus = assay: microbe, parasite or virus in culture; type: cell-based
# Mtb # 8673 = assay: microbe, parasite or virus in culture; type: cell-based
# Mycobacterium avium = assay: microbe, parasite or virus in culture; type: cell-based
# Msm 607 = assay: microbe, parasite or virus in culture; type: cell-based
# [1] = Microsomal stability, human; type: in vitro ADME
# In short: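 Compound at 1 µmol/l incubated with 0.5 mg/ml liver microsomes in 100 mM Tris-HCl pH 7.5, 6.5 mM MgCl2, 1 mM NADPH, 37 °C; acetonitrile-quenched at multiple time points, measured by HPLC-MS/MS. First-order half-lives converted to clearance as %Qh via well-stirred liver model.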
# [2] = target: His6-tagged ClpC1-NTD substrate, M. smegmatis ClpC1P1P2 (UniProt A0R574+P9WPC9); assay: biochemical; type: biochemical; settings: for % Response / ClpC1-NTD peak area: Figure 4a source data, well replicates
# Chain of His6-tagged ClpC1-NTD substrate, M. smegmatis ClpC1P1P2 (P9WPC9 1-156, looked up, natural form): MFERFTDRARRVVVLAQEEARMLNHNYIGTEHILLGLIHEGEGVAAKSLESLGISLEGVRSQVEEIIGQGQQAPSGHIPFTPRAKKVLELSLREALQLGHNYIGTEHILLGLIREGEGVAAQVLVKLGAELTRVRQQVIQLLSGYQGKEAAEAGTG
# Chain of His6-tagged ClpC1-NTD substrate, M. smegmatis ClpC1P1P2 (A0R574 whole entry): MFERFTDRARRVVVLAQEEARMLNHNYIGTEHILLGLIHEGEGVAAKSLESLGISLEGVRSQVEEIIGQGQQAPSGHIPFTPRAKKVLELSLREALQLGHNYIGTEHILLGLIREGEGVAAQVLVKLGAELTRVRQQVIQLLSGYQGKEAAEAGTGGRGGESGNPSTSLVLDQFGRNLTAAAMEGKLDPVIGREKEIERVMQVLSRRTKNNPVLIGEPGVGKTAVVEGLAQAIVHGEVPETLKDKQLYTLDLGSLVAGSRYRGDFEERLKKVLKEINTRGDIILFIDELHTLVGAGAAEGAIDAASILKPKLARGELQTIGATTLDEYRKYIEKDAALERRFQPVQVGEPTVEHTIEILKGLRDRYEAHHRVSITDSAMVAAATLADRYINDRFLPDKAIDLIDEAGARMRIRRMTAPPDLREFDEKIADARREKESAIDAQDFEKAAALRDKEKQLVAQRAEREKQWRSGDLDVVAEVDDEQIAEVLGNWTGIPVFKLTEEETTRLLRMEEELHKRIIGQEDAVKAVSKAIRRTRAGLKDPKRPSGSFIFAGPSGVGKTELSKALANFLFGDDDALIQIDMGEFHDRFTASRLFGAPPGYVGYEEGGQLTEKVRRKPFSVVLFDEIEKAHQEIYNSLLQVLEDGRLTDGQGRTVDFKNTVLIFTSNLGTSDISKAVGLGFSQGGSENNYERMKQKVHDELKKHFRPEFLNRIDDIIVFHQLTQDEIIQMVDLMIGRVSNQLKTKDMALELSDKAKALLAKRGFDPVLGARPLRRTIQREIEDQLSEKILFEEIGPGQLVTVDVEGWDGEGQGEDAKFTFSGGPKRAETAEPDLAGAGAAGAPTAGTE
# Msm 700084 = assay: microbe, parasite or virus in culture; type: cell-based; settings: Mycolicibacterium smegmatis, 700084; read-out: MIC Msm 700084
# Salmonella typhimurium = assay: MIC ESKAPES panel, Salmonella typhimurium; type: cell-based
# Method: (§1) Minimum inhibitory concentration (MIC) against ESKAPES panel of Gram positive and Gram negative pathogens (Enterococcus faecium, Staphylococcus aureus, Klebsiella pneumoniae, Acinetobacter baumannii, Pseudomonas aeruginosa, Enterobacter cloacae and Salmonella typhimurium [ESKAPES panel]) were determined at the FNDR by the standard broth dilution method [CLSI, M100]. […] Mueller Hinton broth (MHB) medium was used to grow ESKAPES panel strains. The individual cultures were added as 200 μL (inoculum of 3–7 × 10^5 cfu/ml) to the respective assay plates in each well to all columns, except the media control (200 μL of medium). […] The assay plates were incubated at 37 °C, and the results were noted on the 2nd day as turbidometric readout. The clear wells indicated inhibition of growth, while the turbid wells indicated uninhibited growth.
# [3] = system: M. tuberculosis H37Rv (ATCC 27294); assay: microbe, parasite or virus in culture; type: cell-based
# [4] = system: Mtb (katG del) ATCC 35822; assay: microbe, parasite or virus in culture; type: cell-based; settings: Mycobacterium tuberculosis
# Mtb # 11291 = assay: microbe, parasite or virus in culture; type: cell-based
# Enterobacter cloacae = assay: MIC ESKAPES panel, Enterobacter cloacae; type: cell-based
# Method: as §1
# [5] = target: ClpC1 NTD protein (M. tuberculosis) (Mycobacterium tuberculosis, UniProt P9WPC9); assay: biochemical; type: binding; settings: SPR
# Chain of ClpC1 NTD protein (M. tuberculosis) (P9WPC9 1-156, looked up, natural form): as the sequence (P9WPC9 1-156, looked up, natural form) above
# Caco-2 monolayers = assay: in vitro
# In short: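 Permeability across Caco-2 monolayers was measured in both directions, apical-to-basolateral and basolateral-to-apical, in 10^-6 cm s-1. Efflux ratio = P(B−A)/P(A−B). Intrinsic permeability is the mean of P(A−B) and P(B−A).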
# [6] = Experiment 2, three replicate columns
# [7] = single well replicates, listed as 8 (UdSBAI-0545)
# [8] = Gram-Negative Bacteria, replicates 1-3, listed as 8 (UdSBI-0545)
compound,measurement,setting,value
COC(c1ccccc1)C1NC(=O)C(C)NC(=O)C(CC(C)CO)N(C)C(=O)C(Cc2cn(Cc3cn(CCOCCOCCOCCOCCn4cc(Cn5cc(CC6NC(=O)C(C(C)C)NC(=O)C(CC(C)C)N(C)C(=O)C(C(C)C)NC(=O)C(C(OC)c7ccccc7)NC(=O)C(C)NC(=O)C(CC(C)CO)N(C)C6=O)c6ccccc65)nn4)nn3)c3ccccc23)NC(=O)C(C(C)C)NC(=O)C(CC(C)C)N(C)C(=O)C(C(C)C)NC1=O (stereo not drawn) [Compound 8],MIC (µg/ml) Mycobacterium abscessus,Mycobacterium abscessus; [6],>108.53 µg/mL
same,MIC,"Mycobacterium abscessus; Experiment 2, three replicate columns, read-out: MIC (µM) Mycobacterium abscessus",>50 µM
same,MIC,"Mycobacterium abscessus; Mycobacteroides abscessus, Experiment 1, read-out: MIC Mycobacterium abscessus",> 50 µM and > 109 µg/mL
same,MIC,"Mycobacterium abscessus; Mycobacteroides abscessus, Experiment 2, three replicate columns, read-out: MIC (µM) Mycobacterium abscessus",> 50 µM
same,MIC,"Mycobacterium abscessus; Mycobacteroides abscessus, Experiment 2, three replicate columns, read-out: MIC (µg/ml) Mycobacterium abscessus",> 109 µg/mL
same,MIC,"Mycobacterium abscessus; Mycobacteroides abscessus, mean ± SD, read-out: MIC Mycobacterium abscessus",> 50 µM
same,MIC,"Mtb # 8673; Mycobacterium tuberculosis, mean, n = 2 well replicates",< 0.1 µM and < 0.2 µg/mL
same,MIC,"Mtb # 8673; Mycobacterium tuberculosis, single well replicates",< 0.1 µM and < 0.21 µg/mL
same,MIC,Mtb # 8673; [7],<0.1 µM
same,MIC Mtb # 8673,Mtb # 8673; [7],<0.21 µg/mL
same,MIC,"Mycobacterium avium; Experiment 1, listed as 8 (UdSBI-0545), read-out: MIC Mycobacterium avium",>50 µM
same,MIC (µg/ml) Mycobacterium avium,Mycobacterium avium; [6],>108.53 µg/mL
same,MIC,"Mycobacterium avium; Experiment 2, three replicate columns, read-out: MIC (µM) Mycobacterium avium",>50 µM
same,MIC,"Mycobacterium avium; Mycobacterium avium, Experiment 1, read-out: MIC Mycobacterium avium",> 109 µg/mL
same,MIC,"Mycobacterium avium; Mycobacterium avium, Experiment 2, three replicate columns, read-out: MIC (µM) Mycobacterium avium",> 50 µM
same,MIC,"Mycobacterium avium; Mycobacterium avium, Experiment 2, three replicate columns, read-out: MIC (µg/ml) Mycobacterium avium",> 109 µg/mL
same,MIC,"Mycobacterium avium; Mycobacterium avium, mean ± SD, read-out: MIC Mycobacterium avium",> 50 µM
same,MIC,"Msm 607; Mycolicibacterium smegmatis, 607, read-out: MIC Msm 607",1.9 ± 0.9 µM
same,MIC,"Msm 607; Mycolicibacterium smegmatis, 607, read-out: MIC Msm #607, individual example (Supplementary Table 11)",1.6 µM and 3.4 µg/mL
same,MIC,"Msm 607; Mycolicibacterium smegmatis, ATCC607, Set-1, read-out: MIC (Msm ATCC607) Set-1",3.12 µM and 6.78 µg/mL
same,MIC,"Msm 607; Mycolicibacterium smegmatis, ATCC607, Set-2, read-out: MIC (Msm ATCC607) Set-2",1.56 µM and 3.39 µg/mL
same,MIC,"Msm 607; Mycolicibacterium smegmatis, ATCC607, Set-3, done at a different day than Set 1 and Set 2, read-out: MIC (Msm ATCC607) Set-3",1.56 µM and 3.39 µg/mL
same,MIC,"Msm 607; Mycolicibacterium smegmatis, ATCC607, mean of 3 experiments ± SD, read-out: MIC including standard deviations (Msm ATCC607)",2.08 µM and 4.5 µg/mL
same,Microsomal Stability Human QH,[1]; Human,>88.4 >88.4 >88.4%
same,Microsomal Stability Human,[1]; clearance in microsomes,> 88 %Qh
same,DC50,"[2]; Msm, Measurement 1-6, read-out: DC50, single measurements",9 µM and 8.5 µM and 6 µM and 8.1 µM and 8.2 µM
same,DC50,"[2]; cell-free degradation of ClpC1-NTD, 90 min, read-out: DC50 M.smegmatis ClpC1P1P2 Mean",8 µM
same,% Response,[2]; conc. 0.4 µM,120.356% and 117.751% and 102.838% and 93.7015% and 104.532% and 103.754% and 118.347% and 117.353% and 124.609%
same,ClpC1-NTD peak area,[2]; conc. 0.4 µM,613438 and 713203 and 1462174 and 1713249 and 1751036 and 1183458 and 1105910 and 1047700 and 547599
same,% Response,[2]; conc. 33.3 µM,25.9293% and 29.5058% and 21.1338% and 16.911% and 37.0492% and 22.8094% and 15.8145% and 16.4069% and 19.2475%
same,ClpC1-NTD peak area,[2]; conc. 33.3 µM,245614 and 155160 and 213594 and 218458 and 306322 and 219308 and 255600 and 176271 and 124945
same,% Response,[2]; conc. 100.0 µM,31.4886% and 23.4001% and 28.8941% and 17.4698% and 14.335% and 19.5877% and 11.6161% and 9.907% and 14.2139%
same,ClpC1-NTD peak area,[2]; conc. 100.0 µM,99143.4 and 153042 and 198962 and 150433 and 187091 and 243688 and 174896 and 223232 and 140724
same,MIC,Msm 700084,8.3 ± 5.1 µM
same,MIC,Salmonella typhimurium; [8],>50 µM
same,MIC,"Salmonella typhimurium; Salmonella enterica, TYPHIMURIUM, Gram negative, n = 3 well replicates",> 50 µM
same,MIC,"Salmonella typhimurium; Salmonella enterica, TYPHIMURIUM, Gram-Negative Bacteria, replicates 1-3",> 109 µg/mL
same,MIC,"[3]; Mycobacterium tuberculosis, M. tuberculosis H37Rv 27294, single well replicates, read-out: MIC",0.098 µM
same,MIC,"[3]; Mycobacterium tuberculosis, M. tuberculosis H37Rv strain, read-out: MIC Mtb H37Rv Mean ± SD",0.4 ± 0.4 µM
same,MIC,"[3]; Mycobacterium tuberculosis, Mtb H37Rv (Supplementary Table 2), read-out: MIC Mtb",0.4 ± 0.4 µM
same,MIC,"[3]; Mycobacterium tuberculosis, Mtb H37Rv, mean ± SD, n = 3 well replicates, read-out: MIC",0.2 ± 0.1 µM
same,MIC,"[3]; Mycobacterium tuberculosis, Set 1, read-out: MIC (Mtb H37Rv) Set 1",0.1 µM and 0.21 µg/mL
same,MIC,"[3]; Mycobacterium tuberculosis, Set 2, read-out: MIC (Mtb H37Rv) Set 2",0.05 µM and 0.1 µg/mL
same,MIC,"[3]; Mycobacterium tuberculosis, Set 3, done at a different day than Set 1 and Set 2, read-out: MIC (Mtb H37Rv) Set 3",0.1 µM and 0.21 µg/mL
same,MIC,"[3]; Mycobacterium tuberculosis, individual example (Supplementary Table 11), read-out: MIC Mtb H37Rv",0.1 µM and 0.2 µg/mL
same,MIC,"[3]; Mycobacterium tuberculosis, mean of 3 experiments +/- SD, unit taken from the sets above in the same table, read-out: MIC data (Mtb H37Rv) (+/- SD)",0.08 µM and 0.17 µg/mL
same,MIC,"[3]; individual measurements (source data), listed as 8 (UdSBI-0545), read-out: Mtb MIC",0.780 µM (2×) and 0.097 µM (2×)
same,MIC,"[4]; ATCC35822, M. tuberculosis ATCC 35822, single well replicates",0.195 µM
same,MIC,"[4]; ATCC35822, Mtb (katG del) ATCC 35822, mean ± SD, n = 3 well replicates",0.2 µM
same,MIC,"Mtb # 11291; Mycobacterium tuberculosis, mean, n = 2 well replicates, read-out: MIC Mtb # 11291",< 0.1 µM and < 0.2 µg/mL
same,MIC,"Mtb # 11291; Mycobacterium tuberculosis, read-out: MIC Mtb # 11291, single well replicates",< 0.1 µM and < 0.21 µg/mL
same,MIC Mtb # 11291,Mtb # 11291; [7],<0.21 µg/mL
same,MIC,"Mtb # 11291; single well replicates, listed as 8 (UdSBAI-0545), read-out: MIC Mtb # 11291",<0.1 µM
same,MIC,"Enterobacter cloacae; Enterobacter cloacae, Gram negative, n = 3 well replicates",> 50 µM
same,MIC,"Enterobacter cloacae; Enterobacter cloacae, Gram-Negative Bacteria, replicates 1-3",> 109 µg/mL
same,MIC,Enterobacter cloacae; [8],>50 µM
same,Kd,"[5]; individual measurements (source data), listed as 8 (UdSBI-0545), read-out: KD ClpC1-NTD",0.000325 µM and 0.000439 µM and 0.000567 µM and 0.000381 µM
same,Kd,[5]; read-out: ClpC1-NTD KD Mean ± SD,0.0004 ± 0.0001 µM
same,CACO permeability PEAB,Caco-2 monolayers; apical to basolateral,<0.0000027 cm/sec
same,Caco-2 permeability P (A-B),Caco-2 monolayers; apical to basolateral,< 0.6 10-6 cm s-1
same,CACO permeability PEBA,Caco-2 monolayers; basolateral to apical,<0.000001 cm/sec
same,Caco-2 permeability P (B-A),Caco-2 monolayers; basolateral to apical,< 0.3 10-6 cm s-1
same,Caco-2 Int. Perm,Caco-2 monolayers; mean value of P(A−B) and P(B−A),0.4 10-6 cm s-1
